From US10752635B2, “Indazole compounds and uses thereof” (Incyte Corporation, priority 2018, dated 2020)

Target: HPK1 (Homo sapiens (Human), UniProt Q92918)
Test: HPK1 Kinase Binding Assay
Details: active HPK1 (SignalChem M23-11G), tracer 222, LanthaScreen Eu-Anti GST antibody, one hour at 25° C.
Protocol: A stock solution of 1 mM test compound was prepared in DMSO. The compound plate was prepared by 3-fold and 11-point serial dilutions. 0.1 μL of the compound in DMSO was transferred from the compound plate to the white 384 well polystyrene plates. The assay buffer contained 50 mM HEPES, pH 7.5, 0.01% Tween-20, 5 mM MgCl2, 0.01% BSA, and 5 mM DTT. 5 μL of 4 nM active HPK1 (SignalChem M23-11G) prepared in the buffer was added to the plate. The enzyme concentration given was based on the given stock concentration reported by the vender. […] After one hour incubation at 25° C., the plates were read on a PHERAstar FS plate reader (BMG Labtech). Ki values were determined.

Sequence of HPK1 (Q92918 1-346 limits assumed): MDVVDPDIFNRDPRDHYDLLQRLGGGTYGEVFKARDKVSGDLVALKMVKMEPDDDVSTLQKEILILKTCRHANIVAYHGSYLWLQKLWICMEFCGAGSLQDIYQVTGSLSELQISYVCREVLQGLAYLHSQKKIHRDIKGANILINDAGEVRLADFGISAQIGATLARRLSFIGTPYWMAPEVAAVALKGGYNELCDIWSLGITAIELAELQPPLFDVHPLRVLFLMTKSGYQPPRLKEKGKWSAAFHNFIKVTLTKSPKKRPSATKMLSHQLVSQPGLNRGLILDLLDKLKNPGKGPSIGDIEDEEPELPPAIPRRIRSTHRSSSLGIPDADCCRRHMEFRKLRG

SMILES | Ki [µM]
COc1cccc(F)c1-c1nccc(C(=O)Nc2cc(F)c3c(cnn3CCF)c2N2C[C@@H]3C[C@H]2CN3)n1 [Example 36, N-(4-((1S,4S)-2,5-Diazabicyclo[2.2.1]heptan-2-yl)-7-fluoro-1-(2-fluoroethyl)-1H-indazol-5-yl)-2-(2-fluoro-6-methoxyphenyl)pyrimidine-4-carboxamide] | < 0.1
[2H]C([2H])([2H])Oc1ccc(C)c(F)c1-c1nccc(C(=O)Nc2cc(F)c3c(cnn3CCOC)c2N2C[C@@H](N)C[C@H]2CO)n1 [Example 37, N-(4-((2S,4S)-4-Amino-2-(hydroxymethyl)pyrrolidin-1-yl)-7-fluoro-1-(2-methoxyethyl)-1H-indazol-5-yl)-2-(2-fluoro-6-(methoxy-d3)-3-methylphenyl)pyrimidine-4-carboxamide] | < 0.1
COCCn1ncc2c(N3C[C@@H](N)C[C@H]3CO)c(NC(=O)c3ccnc(-c4c(F)cc(N)cc4OC)n3)cc(F)c21 [Example 38, N-(4-((2S,4S)-4-Amino-2-(hydroxymethyl)pyrrolidin-1-yl)-7-fluoro-1-(2-methoxyethyl)-1H-indazol-5-yl)-2-(4-amino-2-fluoro-6-methoxyphenyl)pyrimidine-4-carboxamide] | < 0.1
CNC(=O)c1ccc(OC)c(-c2nccc(C(=O)Nc3cc(F)c4c(cnn4CCOC)c3N3C[C@@H](N)C[C@H]3CO)n2)c1F [Example 39, N-(4-((2S,4S)-4-Amino-2-(hydroxymethyl)pyrrolidin-1-yl)-7-fluoro-1-(2-methoxyethyl)-1H-indazol-5-yl)-2-(2-fluoro-6-methoxy-3-(methylcarbamoyl)phenyl)pyrimidine-4-carboxamide] | < 0.1
COCCn1ncc2c(N3C[C@@H](N)C[C@H]3CO)c(NC(=O)c3ccnc(-c4c(OC)ccc(-c5cnn(C)c5)c4F)n3)cc(F)c21 [Example 40, N-(4-((2S,4S)-4-Amino-2-(hydroxymethyl)pyrrolidin-1-yl)-7-fluoro-1-(2-methoxyethyl)-1H-indazol-5-yl)-2-(2-fluoro-6-methoxy-3-(1-methyl-1H-pyrazol-4-yl)phenyl)pyrimidine-4-carboxamide] | < 0.1
COc1cccc(F)c1-c1nccc(C(=O)Nc2cc(F)c3c(cnn3C)c2N(C)[C@@H]2CCCNC2)n1 [Example 41, (R)—N-(7-Fluoro-1-methyl-4-(methyl(piperidin-3-yl)amino)-1H-indazol-5-yl)-2-(2-fluoro-6-methoxyphenyl)pyrimidine-4-carboxamide] | < 0.1
COCCn1ncc2c(N3C[C@@H](N)C[C@H]3CO)c(NC(=O)c3cccc(-c4c(F)cccc4OC)n3)cc(F)c21 [Example 42, N-(4-((2S,4S)-4-Amino-2-(hydroxymethyl)pyrrolidin-1-yl)-7-fluoro-1-(2-methoxyethyl)-1H-indazol-5-yl)-6-(2-fluoro-6-methoxyphenyl)picolinamide] | < 0.1
